Assay results taken from patent US6020363A, “Isocoumarin derivatives and use thereof in drugs” (Mercian Corporation, priority 1998, dated 2000).

Columns and labels:
[1] = system: collagen-induced arthritis; assay: Inhibitory Effect on Collagen-Induced Arthritis (No. 1), sole thickness; format: in vivo, DBA/1J mice; conditions: intraperitoneal, mean ± SD, *p < 0.05 vs control (8.02 ± 0.82)
Protocol: (§1) The preventive effect on the onset of collagen-induced arthritis was tested by using DBA/1J mice in groups of 5-8. Specifically, type II collagen was mixed with an equal volume of Freund's complete adjuvant and emulsified to prepare a 1 mg/ml emulsion. Mice were sensitized by administering 0.1 ml of this emulsion intracutaneously to the root of the tail. After 21 days, the mice were additionally immunized by emulsifying type II collagen in the same manner as before and administering 0.1 ml of the emulsion intraperitoneally so as to induce arthritis.
Starting from the day of the first sensitization with type II collagen, Compound 1 was orally administered, once a day, for 43 days in a dose of 10 or 30 mg/kg body weight. Similarly, each of Compounds 2 and 3 was intraperitoneally administered, once a day, for 43 days in a dose of 1 or 10 mg/kg body weight. Their inhibitory effect on collagen-induced arthritis was evaluated by measuring the sole thicknesses of the hind legs periodically with digital vernier calipers.

[2] = system: collagen-induced arthritis; assay: Inhibitory Effect on Collagen-Induced Arthritis (No. 2), arthritis score; format: in vivo, DBA/1J mice; conditions: oral, mean ± SE, maximum 16
Protocol: as §1
Animals having arthritis induced in the same manner as described above were used in groups of 7-8. Compound 3 was orally administered, once a day, for 21 days following the additional immunization in a dose of 1, 3 or 10 mg/kg body weight. For comparative purposes, MI43 was similarly administered to another group in a dose of 30 mg/kg body weight. According to the degree of rubor, swelling and rigidity in each of the forelegs and hind legs of the experimental animals, their inhibitory effect on collagen-induced arthritis was evaluated on the following basis by a score ranging from 0 to 4 (with a maximum value of 16).
0: No symptom is observed.
2: Two or more small joints, or a relatively large joint such as that of the wrist or ankle, show rubor or swelling.
4: The total swelling of the hand or foot reaches its peak and, moreover, is accompanied by joint rigidity.

carrageenin edema = assay: Effect on Carrageenin Edema; format: in vivo, ICR mice; conditions: for Degree of edema (%): 2 h after carrageenin, mean ± SE, control 47.4 ± 2.8
Protocol: The effect on carrageenin edema was tested by using ICR mice in groups of 6-7. Specifically, Compound 3 was orally administered thereto in a dose of 3 or 30 mg/kg body weight. As a positive control drug, indomethacin was similarly administered in a dose of 20 mg/kg body weight. After 30 minutes, 25 μl of a 1% carrageenin solution was subcutaneously injected into the sole of the right hind leg. Two hours after the administration of carrageenin, the thickness of the sole was measured with digital vernier calipers, and the degree of edema (%) based on the thickness measured before administration was calculated.

[3] = system: cyclooxygenase (or prostaglandin endoperoxide synthase); assay: Effect on cyclooxygenase activity; format: biochemical, sheep
Protocol: The inhibitory effect of Compound 3 on cyclooxygenase (or prostaglandin endoperoxide synthase) activity was tested according to the method of Evans et al. (Biochemical Pharmacology, 36: 2035-2037, 1987). Specifically, an enzyme preparation derived from the seminal vesicles of sheep was incubated at 27° C. for 1.5 minutes in the presence of 500 μM arachidonic acid and 300 μM Compound 3. After the reaction was stopped by adding trichloroacetic acid to the reaction mixture, its absorbance was measured at 532 nm.

5-lipoxygenase = assay: Effect on 5-lipoxygenase activity; format: biochemical, rats
Protocol: Moreover, its inhibitory effect on 5-lipoxygenase was tested according to the method of Egan et al. (Journal of Biological Chemistry, 260: 11554-11559, 1985). Specifically, an enzyme preparation derived from the basophilic leukemia cells (RBL-1) of rats was used. This enzyme preparation, together with 30 μM Compound 3, was incubated at room temperature for 5 minutes, followed by the addition of linolenic acid. Thereafter, this mixture was incubated at room temperature for 8 minutes. After the reaction was stopped by the addition of a sodium hydroxide solution, its absorbance was measured at 234 nm.

Acute toxicity in mice = format: in vivo, DBA/1J mice; conditions: 100 mg/kg
Protocol: (§2) Among the compounds in accordance with the present invention, each of Compounds 1, 2 and 3 was orally or intraperitoneally administered to eight DBA/1J mice in a dose of 100 mg/kg body weight. […] This seems to indicate that the compounds used in the present invention have no or very little, if any, acute toxicity. Moreover, Compound 1, in a dose of 100 mg/kg body weight, or Compound 3, in a dose of 30 mg/kg body weight, was orally administered to eight mice of the aforesaid strain for 40 days. […] Thus, the compounds of the present invention have little subacute toxicity. Since other compounds in accordance with the present invention are estimated to have similar properties, the compounds of the present invention can be used very safely.

[4] = set-up: species or system DBA/1J mice; conditions: mouse, in vivo, po, 30 mg/kg
Protocol: as §2

Structure (SMILES): COc1cc(O)c2c(=O)oc(C(C)C(=O)O)cc2c1 (stereo not shown) [Compound 3, 2-(8-hydroxy-6-methoxy-1-oxo-1H-2-benzopyran-3-yl)propionic Acid]
- Sole thickness (sum of left and right, mm), after 37 days ([1]; 1 mg/kg/day): 7.08 ± 0.16 mm
- Sole thickness (sum of left and right, mm), after 37 days ([1]; 10 mg/kg/day): 6.78 ± 0.98 mm
- Score after 37 days ([2]; 1 mg/kg/day, control 9.25 ± 1.35): 6.50 ± 1.49
- Score after 37 days ([2]; 3 mg/kg/day, control 9.25 ± 1.35): 5.00 ± 1.61
- Score after 37 days ([2]; 10 mg/kg/day, **p < 0.01 vs control (9.25 ± 1.35)): 3.50 ± 0.63
- effect on carrageenin edema (in words) (carrageenin edema; doses of 3 and 30 mg/kg): no inhibitory effect on carrageenin edema
- Degree of edema (%) (carrageenin edema; oral 3 mg/kg): 41.7 ± 3.1%
- Degree of edema (%) (carrageenin edema; oral 30 mg/kg): 46.1 ± 4.2%
- inhibitory effect on cyclooxygenase (in words) ([3]; 30 μM or 300 μM): no inhibitory effect on cyclooxygenase or lipoxygenase
- Degree of inhibition (%), Cyclooxygenase ([3]; 300 μM Compound 3, 500 μM arachidonic acid, n = 2): -4.0%
- Degree of inhibition (%), 5-Lipoxygenase (5-lipoxygenase; 30 μM Compound 3, n = 2): 21.0%
- inhibitory effect on lipoxygenase (in words) (5-lipoxygenase; 30 μM or 300 μM): no inhibitory effect on cyclooxygenase or lipoxygenase
- evidence of toxicity, single administration (Acute toxicity in mice; mouse, in vivo): no animal showed evidences of toxicity
- mortality, single administration (Acute toxicity in mice; oral or intraperitoneal, eight DBA/1J mice): No animal died
- evidence of toxicity, 40 days [4]: no animal showed evidences of toxicity
- mortality, 40 days [4]: No animal died
